Data as given in article PMC10508264, “Exploring the antioxidant, antimicrobial, cytotoxic and biothermodynamic properties of novel morpholine derivative bioactive Mn(II), Co(II) and Ni(II) complexes – combined experimental and theoretical measurements towards DNA/BSA/SARS-CoV-2 3CL^Pro” (RSC Medicinal Chemistry, 2023).

Columns and labels:
CT-DNA = test: DNA binding by viscometric (hydrodynamic) technique
Experimental: The hydrodynamic properties were measured using an Ostwald viscometer with the help of a thermostat (25 ± 0.1 °C). The specific viscosity of DNA was also measured in the presence and absence of the test samples.[13,30]
Generally, when the major/minor groove binding, electrostatic, partial, and non-classical interaction modes are involved between chemical substances and DNA base pairs, the final DNA relative viscosity remains unchanged or undergoes a very negligible change due to reducing the contour length of DNA. When the intercalation binding modes are involved between a chemical substance and DNA base pairs via π–π stacking interactions and hydrophobic forces, an increase in relative viscosity is noted due to a rise in the contour length of DNA. Moreover, for the purpose of observing alterations in the CT-DNA helical structure, the viscosity findings for CT-DNA, various concentrations of chemical substances present, and EtBr were recorded. It was also noted that the absolute viscosity rose consistently along with the incremental concentration of each substance at the fixed DNA concentration. As a result of the strong binding mode of intercalation, the contour length of the double-helix DNA rises.[72] The obtained results are also compared with those of the classical intercalator (EB). The affinity interaction and their slope values were observed from the relative specific viscosity (η/η0)^1/3 plotted as a straight line contrasting [compound]/[DNA] and absolute specific viscosity of DNA in the presence or absence of chemical substances was evaluated using eqn (11) (Table 3). In the experiment, it was clearly noted that the slope values for all samples increased due to the rising binding affinity. The evaluated slopes were in the following sequence: (EB) 1.215 > (2) 0.860 > (3) 0.801 > (1) 0.662 > (HL) 0.490 (Fig. S21 ^† and Table 3). […] Due to the existence of 2,2′-bipyridine and the morpholine-fused aromatic planar systems, compounds can interact with DNA robustly via intercalation. The outcomes agreed with the observed outcomes of electronic absorption spectral characteristics.
11 [drawing 21] where η and η0 represent the specific viscosity of DNA in the presence of the complex and the specific viscosity of DNA alone, t0, tDNA and tcomplex represent the average flow time of the Tris–HCl buffer solution, the average flow time of the DNA alone solution, and the average flow time of DNA interacted with the samples, respectively. Error limit ± 2.5% (P < 0.025). […]
2.2.4. Assessment of DNA affinity by hydrodynamic technique
Hydrodynamic properties were performed using an Ostwald viscometer with the help of a thermostat (25 ± 0.1 °C). The experiment was performed of all samples, including ethidium bromide at various concentrations (20, 40, 60, 80, 100 µM) and each test compound was mixed with the deoxyribonucleic acid solution (100 µM) in the Ostwald viscometer. With a help of digital stopwatch, average flow time was gauged three times for each addition, and the specific viscosity of deoxyribonucleic acid was also measured in the presence and absence of test samples. […]
Also, the emission spectral titration for all compounds was also carried out at a fixed concentration (25 μM) of BSA with an incremental concentration of substances (0–25 µM)

[1] = tested on: Salmonella enterica serovar typhi; test: Agar disc diffusion, strain B; assay type: cell-based; settings: for Diameter of clear zone inhibition: control 6 mm
A549 = test: MTT cell viability assay, A549; assay type: cell-based, human; settings: A549, 72 h of exposure
EB–DNA = EB–DNA competitive fluorescence emission titration; assay type: binding; settings: for KSV (SV method I), DNA / Kass (SV method II), DNA / Kq (SV method I), DNA: EB–DNA; for Kq (SV method I), DNA: τ0 = 10^−8 s; for Kapp (apparent binding constant): KEB = 10^7 M^−1 at 50 μM EB; for LWB method KLB: Lineweaver–Burk
Experimental: Titrations were performed for all tested compounds (1–200 μM) with pre-incubated EB-bound DNA and the intensity variations between 510 nm and 610 nm were carefully monitored in the presence and absence of DNA (200 μM) during the initial emission and excitation by EB.[31]
Fluorescence emission spectral titration is an efficient approach to evaluating the binding properties of DNA/BSA biomolecules. In general, the fluorescence of EB is quite weak in aqueous solution, but when it is bound to DNA, the fluorescence intensity rises. However, it is a well-known imperative intercalator and is more supportive in distinguishing the binding strength of non-fluorescence test substances. Also, the fluorescence emission spectra of the EB–DNA adduct were examined at 610 nm in the absence and presence of rising quantities of each test compound. When the complex concentration (0–240 μM) rises, the fluorescence intensity of the EB-bound DNA complex diminishes owing to the displacement of EB from CT-DNA. A notable reduction in the fluorescence emission intensity at 610 nm is observed (Fig. S26 ^† and Table 4). The photoelectron shift from DNA's guanine base to the excited states may be the cause of the frequency quenching in the emission of the test substance by DNA. […] Therefore, the competitive binding experiment can make use of EB as a fluorescent probe. […] This is further evidence that complexes (1–3) strongly bind intercalatively with DNA. The observed results agree well with the data from electronic absorption spectral measurements. Additionally, the experiment was extended to examine the binding properties between the test substance and BSA. BSA mostly contains three amino acid residues (tyrosine, tryptophan, and phenylalanine), which give it its inherent fluorescence. […] These two residues also have minimal quenching effects. Tryptophan in BSA fluoresces mostly because of a residue that is trapped inside a hydrophobic cavity. Therefore, it is crucial to model potential binding interactions with the metal complexes. […] The fluorescence intensity also reduces while the test substances (1–3) are steadily blended with the BSA solution, proving that complexes (1–3) interact with BSA via altering the protein's secondary structure, which also leads to an alteration in the tryptophan environment of BSA (Fig. S27 ^†). Furthermore, BSA structural similarities share 76% sequence identity with human serum albumin (HSA), the most prevalent protein in blood plasma that transports ions and proteins to cells and tissues. HSA is able to readily crystallize under the trivalent cations, but BSA has no ready crystallizing property. However, they consist of parallel physicochemical properties to each other.[74,75] Additionally, the Stern–Volmer eqn (12) and (13) were employed to analyze the data (Fig. S28 ^† and Table 4). Additionally, the kq values for DNA and BSA binding were acquired in the range of 1.1636–2.8863 × 10^12 and 2.6390–7.0774 × 10^12 mol^−1 s^−1, respectively. They are also much greater than the collision quenching constant value (2.0 × 10^10 mol^−1 s^−1). Therefore, it is assumed that the static quenching process was brought on by adduct construction between the test compounds and BSA rather than a dynamic collision. However, fluorescence spectroscopy is generally plagued by the inner filter effect (IFE), disturbing spectral analysis. The energizing ray is attenuated due to the highly concentrated solution sample. As a result, strong fluorescence is only seen on surfaces facing the excitation beam.

[2] = Hydroxyl radical scavenging assay; assay type: biochemical; settings: for % Inhibition, hydroxyl radical: 230 nm

| Compound | Slope of (η/η0)^1/3 vs [compound]/[DNA] (CT-DNA) | Relative specific viscosity (η/η0)^1/3 (CT-DNA; [complex]/[DNA] = 0.2) | Relative specific viscosity (η/η0)^1/3 (CT-DNA; [complex]/[DNA] = 0.4) | Relative specific viscosity (η/η0)^1/3 (CT-DNA; [complex]/[DNA] = 0.6) | Relative specific viscosity (η/η0)^1/3 (CT-DNA; [complex]/[DNA] = 0.8) | Relative specific viscosity (η/η0)^1/3 (CT-DNA; [complex]/[DNA] = 1.0) | Inhibition% [1] | Diameter of clear zone inhibition [1] | Scatchard analysis KSA (EB–DNA) | KSV (SV method I), DNA (EB–DNA) | Kass (SV method II), DNA (EB–DNA) | Kq (SV method I), DNA (EB–DNA) | Kapp (apparent binding constant) (EB–DNA) | LWB method KLB (EB–DNA) | % Inhibition, hydroxyl radical ([2]; 40 µM) | % Inhibition, hydroxyl radical ([2]; 80 µM) | % Inhibition, hydroxyl radical ([2]; 120 µM) | % Inhibition, hydroxyl radical ([2]; 160 µM) | % Inhibition, hydroxyl radical ([2]; 200 µM) | % Inhibition, hydroxyl radical ([2]; 240 µM) | also measured |
| --- | --- | --- | --- | --- | --- | --- | --- | --- | --- | --- | --- | --- | --- | --- | --- | --- | --- | --- | --- | --- | --- |
| [Mn+2].[O-]c1ccccc1N=Cc1ccc(N2CCOCC2)cc1.[O-]c1ccccc1N=Cc1ccc(N2CCOCC2)cc1.c1ccc(-c2ccccn2)nc1 [(1)] | 0.662 | 0.66 | 0.78 | 0.88 | 1.02 | 1.12 | 50% | 12 mm | 30094 M⁻¹ | 16755 M⁻¹ | 11954 M⁻¹ | 1.6755e+12 M⁻¹ s⁻¹ | 5.926e+06 M⁻¹ | 7149 M⁻¹ | 10.08% | 17.89% | 28.56% | 34.04% | 44.92% | 56.03% | IC50 (A549): 37.6 ± 1.9 µM |
| [Co+2].[O-]c1ccccc1N=Cc1ccc(N2CCOCC2)cc1.[O-]c1ccccc1N=Cc1ccc(N2CCOCC2)cc1.c1ccc(-c2ccccn2)nc1 [(2)] | 0.860 | 0.77 | 0.88 | 1.05 | 1.18 | 1.48 | 40% | 10 mm | 33185 M⁻¹ | 28863 M⁻¹ | 32903 M⁻¹ | 2.8863e+12 M⁻¹ s⁻¹ | 8.349e+06 M⁻¹ | 13497 M⁻¹ | 08.02% | 15.24% | 26.23% | 36.41% | 46.17% | 56.85% | IC50 (A549): 34.2 ± 1.7 µM; IC50 [2]: 200 µM |
| [Ni+2].[O-]c1ccccc1N=Cc1ccc(N2CCOCC2)cc1.[O-]c1ccccc1N=Cc1ccc(N2CCOCC2)cc1.c1ccc(-c2ccccn2)nc1 [(3)] | 0.801 | 0.71 | 0.86 | 0.92 | 1.11 | 1.31 | 40% | 10 mm | 32363 M⁻¹ | 16879 M⁻¹ | 10350 M⁻¹ | 1.6879e+12 M⁻¹ s⁻¹ | 7.34e+06 M⁻¹ | 7786 M⁻¹ | 07.67% | 15.86% | 26.12% | 35.43% | 45.56% | 55.75% | IC50 (A549): 33.5 ± 1.7 µM |
| Oc1ccccc1N=Cc1ccc(N2CCOCC2)cc1 [(HL), 2-(4-morpholinobenzylideneamino)phenol] | 0.490 | 0.61 | 0.67 | 0.75 | 0.85 | 1.01 | 33% | 09 mm | 19093 M⁻¹ | 11636 M⁻¹ | 9606 M⁻¹ | 1.1636e+12 M⁻¹ s⁻¹ | 5.829e+06 M⁻¹ | 6985 M⁻¹ | 07.26% | 14.43% | 25.52% | 33.86% | 40.73% | 50.68% | IC50 (A549; Homo sapiens): 126 ± 6.3 µM |
